From PMC6789782, “Safety Pharmacological Evaluation of the Coffee Component, Caffeoylquinic Acid, and Its Metabolites, Using Ex Vivo and In Vitro Profiling Assays” (Pharmaceuticals, 2019)
Like-named read-outs stand apart in the source and are kept apart here.

Tests used:
Experiment in all cases: In vitro profiling, binding assay
Dopamine D2L = Dopamine D2L (Homo sapiens, UniProt P14416)
Method: (§1) Binding and functional assays of CGAs with the proteins known to be pharmacological targets related to the CVS, CNS, and GI functions were conducted. […] In the binding assay, we measured the radiation activity of the solution containing filtered proteins that bound to the tested compound or high-affinity ligand, while in the functional assays, we measured the reaction product. The ability of the test compound to interact with the tested targets was measured as the inhibition of ligand binding to the target or reaction product production (% inhibition).

Opiate μ = Opiate μ (Homo sapiens, UniProt P35372)
Method: as §1

[1] = biological target: Transporter, Norepinephrine (NET) (Homo sapiens, UniProt P23975)
Method: as §1

Adenosine A2A = Adenosine A2A (Homo sapiens, UniProt P29274)
Sequence of Adenosine A2A (P29274 whole entry): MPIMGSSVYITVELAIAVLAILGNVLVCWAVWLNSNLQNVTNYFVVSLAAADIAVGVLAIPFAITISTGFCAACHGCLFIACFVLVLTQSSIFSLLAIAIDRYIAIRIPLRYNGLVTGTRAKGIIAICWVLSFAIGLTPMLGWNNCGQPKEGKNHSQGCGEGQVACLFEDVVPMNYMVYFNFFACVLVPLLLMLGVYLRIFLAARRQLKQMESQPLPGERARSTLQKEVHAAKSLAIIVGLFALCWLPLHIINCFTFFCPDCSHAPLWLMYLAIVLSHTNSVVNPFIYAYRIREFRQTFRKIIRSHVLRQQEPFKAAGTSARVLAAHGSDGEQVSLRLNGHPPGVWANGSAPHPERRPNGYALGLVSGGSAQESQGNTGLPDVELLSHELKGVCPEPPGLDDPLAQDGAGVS
Method: as §1

[2] = biological target: Transporter, Dopamine (DAT) (Homo sapiens, UniProt Q01959)
Method: as §1

5-HT3 = biological target: T1, 5-HT3 (Homo sapiens, UniProt P46098)
T1 sequence (P46098 24-478): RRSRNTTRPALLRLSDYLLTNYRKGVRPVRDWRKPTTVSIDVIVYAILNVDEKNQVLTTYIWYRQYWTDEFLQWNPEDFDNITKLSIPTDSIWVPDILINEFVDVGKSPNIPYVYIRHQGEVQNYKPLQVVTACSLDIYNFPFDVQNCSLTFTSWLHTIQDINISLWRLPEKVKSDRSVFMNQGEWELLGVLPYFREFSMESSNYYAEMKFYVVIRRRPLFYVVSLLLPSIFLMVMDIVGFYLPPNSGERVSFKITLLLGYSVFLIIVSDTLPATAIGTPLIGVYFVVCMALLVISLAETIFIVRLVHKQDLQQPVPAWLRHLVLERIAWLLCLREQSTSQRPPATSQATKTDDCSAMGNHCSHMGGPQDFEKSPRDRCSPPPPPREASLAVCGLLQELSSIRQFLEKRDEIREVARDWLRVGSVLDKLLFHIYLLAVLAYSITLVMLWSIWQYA
Method: as §1

Cannabinoid CB1 = Cannabinoid CB1 (Homo sapiens, UniProt P21554)
Sequence of Cannabinoid CB1 (P21554 whole entry): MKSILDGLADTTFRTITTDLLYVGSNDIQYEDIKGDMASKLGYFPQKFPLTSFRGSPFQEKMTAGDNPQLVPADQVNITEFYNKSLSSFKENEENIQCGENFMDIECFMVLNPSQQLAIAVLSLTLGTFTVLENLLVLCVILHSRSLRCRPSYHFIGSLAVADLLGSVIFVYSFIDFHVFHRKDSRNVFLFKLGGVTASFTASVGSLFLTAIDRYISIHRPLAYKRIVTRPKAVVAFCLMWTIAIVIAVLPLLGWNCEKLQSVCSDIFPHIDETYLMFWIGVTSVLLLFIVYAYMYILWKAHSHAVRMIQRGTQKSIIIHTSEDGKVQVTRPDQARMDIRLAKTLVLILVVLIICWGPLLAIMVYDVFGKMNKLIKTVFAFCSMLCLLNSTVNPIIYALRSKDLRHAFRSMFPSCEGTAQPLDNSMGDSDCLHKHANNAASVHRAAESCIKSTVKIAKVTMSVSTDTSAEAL
Method: as §1

5-HT1B = 5-HT1B (Homo sapiens, UniProt P28222)
Sequence of 5-HT1B (P28222 whole entry): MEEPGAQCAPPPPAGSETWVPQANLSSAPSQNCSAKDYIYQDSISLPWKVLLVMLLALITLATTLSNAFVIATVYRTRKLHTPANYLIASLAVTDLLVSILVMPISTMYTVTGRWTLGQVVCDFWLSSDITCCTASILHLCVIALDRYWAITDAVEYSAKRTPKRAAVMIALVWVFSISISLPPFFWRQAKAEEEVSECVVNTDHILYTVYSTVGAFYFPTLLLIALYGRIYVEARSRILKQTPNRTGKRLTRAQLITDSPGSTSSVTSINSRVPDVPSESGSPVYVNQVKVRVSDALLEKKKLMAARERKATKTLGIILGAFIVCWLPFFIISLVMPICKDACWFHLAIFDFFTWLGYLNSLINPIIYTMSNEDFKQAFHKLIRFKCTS
Method: as §1

hERG potassium channel = hERG potassium channel (Homo sapiens, UniProt Q12809)
Sequence of hERG potassium channel (Q12809 whole entry): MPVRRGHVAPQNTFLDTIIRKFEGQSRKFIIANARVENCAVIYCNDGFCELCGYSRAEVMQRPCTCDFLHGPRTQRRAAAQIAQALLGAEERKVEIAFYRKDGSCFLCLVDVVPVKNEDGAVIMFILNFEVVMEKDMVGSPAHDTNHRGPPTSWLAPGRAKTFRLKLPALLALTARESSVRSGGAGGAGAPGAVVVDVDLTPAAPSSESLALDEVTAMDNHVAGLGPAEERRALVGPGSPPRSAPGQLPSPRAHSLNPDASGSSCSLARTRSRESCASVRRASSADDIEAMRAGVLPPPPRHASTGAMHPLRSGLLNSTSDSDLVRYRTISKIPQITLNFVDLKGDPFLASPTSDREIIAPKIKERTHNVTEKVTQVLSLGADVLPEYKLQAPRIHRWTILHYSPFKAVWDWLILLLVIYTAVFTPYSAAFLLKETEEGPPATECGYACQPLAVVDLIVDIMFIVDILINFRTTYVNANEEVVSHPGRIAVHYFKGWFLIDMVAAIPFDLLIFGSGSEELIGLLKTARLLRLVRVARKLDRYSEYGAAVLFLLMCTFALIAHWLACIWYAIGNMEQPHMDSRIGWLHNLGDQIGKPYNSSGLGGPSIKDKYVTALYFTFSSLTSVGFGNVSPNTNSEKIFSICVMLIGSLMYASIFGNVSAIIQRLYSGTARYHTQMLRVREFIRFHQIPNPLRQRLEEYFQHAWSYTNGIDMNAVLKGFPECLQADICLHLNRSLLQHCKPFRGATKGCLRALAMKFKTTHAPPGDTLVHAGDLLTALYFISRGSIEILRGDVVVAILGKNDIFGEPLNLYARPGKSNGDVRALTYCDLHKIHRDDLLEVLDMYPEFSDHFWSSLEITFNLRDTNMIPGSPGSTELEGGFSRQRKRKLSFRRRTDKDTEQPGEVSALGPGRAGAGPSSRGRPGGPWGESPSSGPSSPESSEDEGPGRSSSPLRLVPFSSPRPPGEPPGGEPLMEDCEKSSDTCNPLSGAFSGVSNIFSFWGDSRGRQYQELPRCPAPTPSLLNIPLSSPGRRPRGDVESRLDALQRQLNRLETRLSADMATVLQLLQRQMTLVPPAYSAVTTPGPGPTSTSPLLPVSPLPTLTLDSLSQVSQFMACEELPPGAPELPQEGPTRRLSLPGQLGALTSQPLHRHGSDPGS
Method: as §1

5-HT2B = 5-HT2B (Homo sapiens, UniProt P41595)
Sequence of 5-HT2B (P41595 whole entry): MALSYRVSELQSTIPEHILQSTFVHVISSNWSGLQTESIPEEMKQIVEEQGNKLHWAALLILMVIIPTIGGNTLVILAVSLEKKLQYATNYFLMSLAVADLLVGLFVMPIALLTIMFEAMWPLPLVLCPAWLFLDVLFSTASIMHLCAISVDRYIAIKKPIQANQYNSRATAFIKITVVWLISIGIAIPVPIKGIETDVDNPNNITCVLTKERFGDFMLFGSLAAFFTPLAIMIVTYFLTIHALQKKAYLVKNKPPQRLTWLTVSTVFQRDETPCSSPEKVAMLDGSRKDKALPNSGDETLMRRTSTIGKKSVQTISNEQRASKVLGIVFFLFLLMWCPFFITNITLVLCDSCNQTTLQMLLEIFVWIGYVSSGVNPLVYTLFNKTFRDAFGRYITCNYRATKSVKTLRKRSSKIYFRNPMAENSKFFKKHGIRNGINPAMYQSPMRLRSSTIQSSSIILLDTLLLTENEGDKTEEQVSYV
Method: as §1

Adrenergic β2 = Adrenergic β2 (Homo sapiens, UniProt P07550)
Sequence of Adrenergic β2 (P07550 whole entry): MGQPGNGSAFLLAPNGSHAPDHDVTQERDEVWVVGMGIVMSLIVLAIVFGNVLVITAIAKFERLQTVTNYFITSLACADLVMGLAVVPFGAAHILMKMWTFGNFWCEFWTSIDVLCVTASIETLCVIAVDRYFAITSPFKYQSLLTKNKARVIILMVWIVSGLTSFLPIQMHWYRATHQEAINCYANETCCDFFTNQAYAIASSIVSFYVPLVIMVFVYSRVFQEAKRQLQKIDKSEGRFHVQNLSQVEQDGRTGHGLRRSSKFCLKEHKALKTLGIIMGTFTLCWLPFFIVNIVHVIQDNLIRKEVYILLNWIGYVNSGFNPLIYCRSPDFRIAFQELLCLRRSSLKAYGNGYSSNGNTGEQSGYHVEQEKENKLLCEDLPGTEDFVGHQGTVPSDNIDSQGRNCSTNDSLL
Method: as §1

Vasopressin V1A = Vasopressin V1A (Homo sapiens, UniProt P37288)
Sequence of Vasopressin V1A (P37288 whole entry): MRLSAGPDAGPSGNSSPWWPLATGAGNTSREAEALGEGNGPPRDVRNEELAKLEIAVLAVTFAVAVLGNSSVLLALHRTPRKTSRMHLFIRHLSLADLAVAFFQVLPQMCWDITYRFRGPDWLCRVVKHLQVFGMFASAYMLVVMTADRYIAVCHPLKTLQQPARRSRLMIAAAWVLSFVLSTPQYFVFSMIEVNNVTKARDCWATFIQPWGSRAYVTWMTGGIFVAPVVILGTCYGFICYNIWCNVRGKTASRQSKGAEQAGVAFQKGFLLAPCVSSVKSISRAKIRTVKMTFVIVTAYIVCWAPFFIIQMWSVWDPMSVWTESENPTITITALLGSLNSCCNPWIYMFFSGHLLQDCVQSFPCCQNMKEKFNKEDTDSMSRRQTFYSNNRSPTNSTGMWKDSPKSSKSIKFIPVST
Method: as §1

[3] = biological target: T2, Cholecystokinin CCK1 (CCKA) (Homo sapiens, UniProt P32238)
T2 sequence (P32238 1-428): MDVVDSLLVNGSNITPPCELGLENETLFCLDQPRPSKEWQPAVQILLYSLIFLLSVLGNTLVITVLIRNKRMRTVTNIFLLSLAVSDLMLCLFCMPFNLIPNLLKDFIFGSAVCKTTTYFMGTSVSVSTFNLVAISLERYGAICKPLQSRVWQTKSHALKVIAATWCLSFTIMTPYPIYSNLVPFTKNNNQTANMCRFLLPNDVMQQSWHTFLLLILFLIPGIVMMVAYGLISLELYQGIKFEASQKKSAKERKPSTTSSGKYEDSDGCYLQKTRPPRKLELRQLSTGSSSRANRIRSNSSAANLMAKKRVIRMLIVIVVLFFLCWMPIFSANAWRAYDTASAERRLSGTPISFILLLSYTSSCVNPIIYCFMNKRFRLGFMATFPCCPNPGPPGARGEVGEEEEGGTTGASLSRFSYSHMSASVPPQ
Method: as §1

Muscarinic M3 = Muscarinic M3 (Homo sapiens, UniProt P20309)
Sequence of Muscarinic M3 (P20309 whole entry): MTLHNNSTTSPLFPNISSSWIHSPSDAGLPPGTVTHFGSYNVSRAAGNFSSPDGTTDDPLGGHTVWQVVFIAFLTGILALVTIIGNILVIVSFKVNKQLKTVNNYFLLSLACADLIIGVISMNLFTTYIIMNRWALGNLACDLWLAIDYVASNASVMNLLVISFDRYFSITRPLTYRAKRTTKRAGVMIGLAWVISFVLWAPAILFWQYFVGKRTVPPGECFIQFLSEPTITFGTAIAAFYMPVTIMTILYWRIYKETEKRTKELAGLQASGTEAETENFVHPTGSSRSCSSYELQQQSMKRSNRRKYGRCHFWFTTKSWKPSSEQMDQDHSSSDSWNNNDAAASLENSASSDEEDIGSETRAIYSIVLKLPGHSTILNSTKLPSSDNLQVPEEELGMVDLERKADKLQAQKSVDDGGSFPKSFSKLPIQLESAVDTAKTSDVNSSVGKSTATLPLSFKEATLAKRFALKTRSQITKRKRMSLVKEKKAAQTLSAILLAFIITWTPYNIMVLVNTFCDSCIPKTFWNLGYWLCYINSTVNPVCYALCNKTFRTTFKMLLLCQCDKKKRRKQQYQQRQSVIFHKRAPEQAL
Method: as §1

Muscarinic M2 = biological target: T3, Muscarinic M2 (Homo sapiens, UniProt P08172)
T3 sequence (P08172 1-466): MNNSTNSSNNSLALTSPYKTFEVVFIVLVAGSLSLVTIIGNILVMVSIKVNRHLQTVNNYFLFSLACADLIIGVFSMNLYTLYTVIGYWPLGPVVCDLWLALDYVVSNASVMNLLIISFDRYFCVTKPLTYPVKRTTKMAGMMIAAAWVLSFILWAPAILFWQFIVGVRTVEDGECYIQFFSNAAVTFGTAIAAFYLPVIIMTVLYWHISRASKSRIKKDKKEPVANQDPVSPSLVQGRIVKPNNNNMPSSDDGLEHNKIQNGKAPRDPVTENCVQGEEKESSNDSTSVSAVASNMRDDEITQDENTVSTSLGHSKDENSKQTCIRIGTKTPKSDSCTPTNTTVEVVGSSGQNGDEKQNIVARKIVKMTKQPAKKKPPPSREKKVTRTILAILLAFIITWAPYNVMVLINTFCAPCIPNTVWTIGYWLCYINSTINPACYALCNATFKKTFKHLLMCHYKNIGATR
Method: as §1

Histamine H2 = Histamine H2 (Homo sapiens, UniProt P25021)
Sequence of Histamine H2 (P25021 whole entry): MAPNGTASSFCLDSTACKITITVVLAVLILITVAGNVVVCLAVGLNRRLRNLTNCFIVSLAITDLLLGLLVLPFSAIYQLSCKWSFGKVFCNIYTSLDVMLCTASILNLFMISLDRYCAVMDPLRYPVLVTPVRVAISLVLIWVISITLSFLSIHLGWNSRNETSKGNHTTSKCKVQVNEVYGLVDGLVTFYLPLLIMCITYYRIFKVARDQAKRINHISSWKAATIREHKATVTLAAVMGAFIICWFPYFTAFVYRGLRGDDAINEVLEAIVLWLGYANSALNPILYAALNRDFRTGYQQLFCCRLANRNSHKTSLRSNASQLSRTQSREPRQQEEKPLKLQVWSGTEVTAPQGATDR
Method: as §1

[4] = 30 µM, Dopamine D2L, read-out: % Inhibition
[5] = 30 µM, Opiate μ, read-out: % Inhibition
[6] = 30 µM, Transporter, Norepinephrine (NET), read-out: % Inhibition
[7] = 30 µM, Adenosine A2A, read-out: % Inhibition
[8] = 30 µM, Transporter, Dopamine (DAT), read-out: % Inhibition
[9] = 30 µM, 5-HT3, read-out: % Inhibition
[10] = 30 µM, Cannabinoid CB1, read-out: % Inhibition
[11] = 30 µM, 5-HT1B, read-out: % Inhibition
[12] = probe radioisotope-labeled high-affinity ligand (not named), 30 µM, Potassium Channel hERG, read-out: % Inhibition
[13] = 30 µM, 5-HT2B, read-out: % Inhibition
[14] = 30 µM, Adrenergic β2, read-out: % Inhibition
[15] = 30 µM, Vasopressin V1A, read-out: % Inhibition
[16] = 30 µM, Cholecystokinin CCK1 (CCKA), read-out: % Inhibition
[17] = 30 µM, Muscarinic M2, read-out: % Inhibition
[18] = 30 µM, Histamine H2, read-out: % Inhibition

Row | SMILES | inhibition at 30 µM (Dopamine D2L; [4]) | inhibition at 30 µM (Opiate μ; [5]) | inhibition at 30 µM [1, 6] | inhibition at 30 µM (Adenosine A2A; [7]) | inhibition at 30 µM [2, 8] | inhibition at 30 µM (5-HT3; [9]) | inhibition at 30 µM (Cannabinoid CB1; [10]) | inhibition at 30 µM (5-HT1B; [11]) | inhibition at 30 µM (hERG potassium channel; [12]) | inhibition at 30 µM (5-HT2B; [13]) | inhibition at 30 µM (Adrenergic β2; [14]) | inhibition at 30 µM (Vasopressin V1A; [15]) | inhibition at 30 µM [3, 16] | inhibition at 30 µM (Muscarinic M3) | inhibition at 30 µM (Muscarinic M2; [17]) | inhibition at 30 µM (Histamine H2; [18]) | inhibition at 30 µM (Dopamine D2L) | also measured
1 | O=C(/C=C/c1ccc(O)c(O)c1)O[C@H]1C[C@@](O)(C(=O)O)C[C@H](O)[C@@H]1O [5-CQA, 5-O-caffeoylquinic acid] | 7% | 8% | -3% | -7% | -10% | -9% | -6% | -1% | 3% | -16% | 1% | 0% | 10% | 5% | -1% | 0% | – | –
2 | COc1cc(/C=C/C(=O)O[C@H]2C[C@@](O)(C(=O)O)C[C@H](O)[C@@H]2O)ccc1O [5-FQA, 5-O-feruloylquinic acid] | -8% | 5% | -1% | 2% | 6% | -3% | -6% | -10% | 6% | -5% | 6% | 16% | 7% | 2% | 7% | -5% | – | –
3 | O=C(O)/C=C/c1ccc(O)c(O)c1 [CA, caffeic acid] | – | – | – | – | – | – | – | – | – | – | – | – | – | – | – | – | 16% | % Inhibition (Opiate μ; 30 µM, Opiate μ): −6%; % Inhibition ([1]; 30 µM, Transporter, Norepinephrine (NET)): 0%; % Inhibition (Adenosine A2A; 30 µM, Adenosine A2A): 4%; % Inhibition ([2]; 30 µM, Transporter, Dopamine (DAT)): 2%; % Inhibition (5-HT3; 30 µM, 5-HT3): −5%; % Inhibition (Cannabinoid CB1; 30 µM, Cannabinoid CB1): −9%; % Inhibition (5-HT1B; 30 µM, 5-HT1B): 3%; inhibition at 30 µM (hERG potassium channel): -19%; % Inhibition (5-HT2B; 30 µM, 5-HT2B): 1%; % Inhibition (Adrenergic β2; 30 µM, Adrenergic β2): 2%; % Inhibition (Vasopressin V1A; 30 µM, Vasopressin V1A): 9%; % Inhibition ([3]; 30 µM, Cholecystokinin CCK1 (CCKA)): 12%; % Inhibition (Muscarinic M3; 30 µM): −3%; % Inhibition (Muscarinic M2; 30 µM, Muscarinic M2): 23%; % Inhibition (Histamine H2; 30 µM, Histamine H2): −6%
4 | COc1cc(/C=C/C(=O)O)ccc1O [FA, ferulic acid] | – | – | – | – | – | – | – | – | – | – | – | – | – | – | – | – | 9% | inhibition at 30 µM (Opiate μ): 4%; inhibition at 30 µM [1]: 2%; inhibition at 30 µM (Adenosine A2A): -14%; inhibition at 30 µM [2]: 0%; inhibition at 30 µM (5-HT3): -13%; inhibition at 30 µM (Cannabinoid CB1): -15%; inhibition at 30 µM (5-HT1B): 4%; inhibition at 30 µM (hERG potassium channel; 30 µM, Potassium Channel hERG, read-out: % Inhibition): 7%; inhibition at 30 µM (5-HT2B): 5%; inhibition at 30 µM (Adrenergic β2): 2%; inhibition at 30 µM (Vasopressin V1A): 6%; inhibition at 30 µM [3]: 1%; inhibition at 30 µM (Muscarinic M2): 17%; inhibition at 30 µM (Histamine H2): -5%
